Values of other authors in US6337320B1, “Reparatives for ultraviolet radiation skin damage” (Thione International, Inc., priority 1996, dated 2002).

Columns and labels:
[1] = oral, prolonged periods
[2] = test system: human subjects
[3] = test system: mice
[4] = test system: patients with psoriasis
[5] = test system: vitamin E deficient chicks
[6] = test system: human leukocytes

[Se] [selenium]
dose at which selenium toxicities occur [1]: > 4000 micrograms per day

C[Se]CC[C@H](N)C(=O)O [selenomethionine]
protection against acute UV damage to the skin, as measured by the minimal erythema dose ([2]; eight women, topical lotion 0.002%, 0.02% and 0.05%): effective | plasma levels of selenium ([2]; volunteers, topical application): remained unchanged | concentration of selenium in skin in areas of topical application ([3]; lotion, topical vs comparable oral doses): greater than those of the experimental animals given comparable oral doses | skin damage by ultraviolet irradiation (inflammation, pigmentation, onset and incidence of skin cancers) ([3]; mice treated with selenomethionine, ultraviolet irradiation): significantly less skin damage | selenium toxicity ([3]; mouse, in vivo, po): no evidence of selenium toxicity | skin levels of selenium dependent glutathione peroxidase ([4]; normal and psoriatic skin): unchanged | increase in blood levels post treatment ([4]; psoriasis patients with normal pretreatment selenium blood levels): 40% | number of CD4+T-cells ([4]; reticular dermis of the psoriatic lesions): statistically significant increase | in vivo lipid peroxidation in tissues [5]: inhibits

(−)epigallo catechin gallate [EGCG]
hydrogen peroxide formation [6]: inhibits
